Earlier results on one compound are cited in patent US20050244357A1, “Oil-containing emulsifiable formulations containing active agents” (priority 2004, published 2005).

The series has as its system thrips. Particulars: cotton, applied alone.

Take `CNC(=O)CSP(=S)(OC)OC` [Dimethoate]: the control of thrips result is “good control”.
